Experimental data published in ChEMBL document CHEMBL5096221, “Discovery of a Highly Potent and Orally Bioavailable STAT3 Dual Phosphorylation Inhibitor for Pancreatic Cancer Treatment” (J Med Chem, 2022).
Calls of active or inactive are those of the source. The calls are words filed in the database; no cut-off is given here.

Assays:
[1] = target: T1, Signal transducer and activator of transcription 3 (Homo sapiens, UniProt P40763); assay: Inhibition of STAT3 in human BXPC-3 cells assessed as inhibition of STAT3 phosphorylation at Ser 727 at 1 to 30 nM incubated for 22 to 24 hrs by western blot analysis; type: cell-based; settings: dose 1-30 nM, time 22-24 hrs, DDE = dose-dependent effect
[2] = AUC (0-infinity) in BALB/c mouse at 10 mg/kg,po measured upto 24 hrs by LC-MS/MS analysis; type: ADME, organism-based; parameters: time < 24 hrs, dose 10 mg/kg, route po; settings: in vivo
[3] = Microsomal stability in dog liver microsomes assessed as intrinsic clearance incubated upto 40 mins in presence of NADPH by LC-MS/MS analysis; type: ADME, Canis lupus familiaris, Microsome; settings: read-out: CLH
[4] = target: T1, Signal transducer and activator of transcription 3; assay: Thermal stabilization of STAT3 in human BXPC-3 cells at 10 microM at 47.4 degreeC incubated for 1 hrs by cellular thermal shift assay; type: cell-based
[5] = Cmax in BALB/c mouse at 1 mg/kg,iv measured upto 24 hrs by LC-MS/MS analysis; type: ADME, organism-based; parameters: dose 1 mg/kg, time < 24 hrs, route iv; settings: in vivo
[6] = Cmax in BALB/c mouse at 10 mg/kg,po measured upto 24 hrs by LC-MS/MS analysis; type: ADME, organism-based; parameters: time < 24 hrs, dose 10 mg/kg, route po; settings: in vivo
[7] = tested on: BXPC-3; assay: Antitumor activity against human BXPC-3 cells xenografted BALB/c mouse model assessed as tumor growth inhibition at 30 mg/kg,po administrated once daily for 8 weeks; type: functional; settings: BXPC-3, 1344 h, read-out: TGI
[8] = tested on: Capan-2; assay: Anti-proliferative activity against human Capan-2 cells assessed as cell growth inhibition incubated for 72 hrs by MTS assay; type: functional, cell-based; settings: Capan-2, 72 h
[9] = AUC (0-24hrs) in BALB/c mouse at 10 mg/kg,po measured upto 24 hrs by LC-MS/MS analysis; type: ADME, organism-based; parameters: dose 10 mg/kg, time < 24 hrs, route po; settings: in vivo
[10] = tested on: Mus musculus; assay: In vivo inhibition of STAT3 in BALB/c mouse xenografted with human BXPC-3 cells assessed as inhibition of STAT3 phosphorylation at Tyr 705 at 10 mg/kg,po administrated once daily for 8 weeks by immunohistochemical analysis; type: functional, organism-based
[11] = target: T1, Signal transducer and activator of transcription 3; assay: Inhibition of STAT3 in human Capan-2 cells assessed as inhibition of STAT3 phosphorylation at Ser 727 at 1 to 30 nM incubated for 22 to 24 hrs by western blot analysis; type: cell-based; settings: dose 1-30 nM, time 22-24 hrs, DDE = dose-dependent effect
[12] = target: T1, Signal transducer and activator of transcription 3; assay: Binding affinity to human recombinant STAT3 expressed in Escherichia coli BL21 by MST assay
[13] = Microsomal stability in dog liver microsomes assessed as half life incubated upto 40 mins in presence of NADPH by LC-MS/MS analysis; type: ADME, Canis lupus familiaris, Microsome
[14] = tested on: BXPC-3; assay: Inhibition of mitochondrial respiration in human BXPC-3 cells assessed as reduction in basal respiration rate at 1 to 30 nM incubated for 1 hr by seahorse XF96 flux analyzer; type: functional, cell-based; settings: dose 1-30 nM, DDE = dose-dependent effect
[15] = tested on: BXPC-3; assay: Antitumor activity against human BXPC-3 cells xenografted BALB/c mouse model assessed as reduction in Ki67 expression at 30 mg/kg,po administrated once daily for 8 weeks by immunohistochemical analysis; type: functional, organism-based
[16] = target: Mitogen-activated protein kinase 8 (Homo sapiens, UniProt P45983); assay: Inhibition of JNK1 (unknown origin)
[17] = Toxicity in BALB/c mouse xenografted with human BXPC-3 cells assessed as body weight change at 10 mg/kg,po administrated once daily for 8 weeks; type: organism-based; settings: in vivo, 1344 h
[18] = AUC (0-24hrs) in BALB/c mouse at 1 mg/kg,iv measured upto 24 hrs by LC-MS/MS analysis; type: ADME, organism-based; parameters: time < 24 hrs, dose 1 mg/kg, route iv; settings: in vivo
[19] = Toxicity in BALB/c mouse xenografted with human BXPC-3 cells assessed as effect on kidney at 10 mg/kg,po administrated once daily for 8 weeks by H and E staining based microscopic analysis; type: organism-based; settings: in vivo, 1344 h
[20] = target: T1, Signal transducer and activator of transcription 3; assay: Inhibition of STAT3 in human Capan-2 cells assessed as inhibition of STAT3 phosphorylation at Tyr 705 at 1 to 30 nM incubated for 22 to 24 hrs by western blot analysis; type: cell-based; settings: dose 1-30 nM, time 22-24 hrs, DDE = dose-dependent effect
[21] = tested on: Mus musculus; assay: In vivo inhibition of STAT3 in BALB/c mouse xenografted with human BXPC-3 cells assessed as inhibition of STAT3 phosphorylation at Tyr 705 at 30 mg/kg,po administrated once daily for 8 weeks by immunohistochemical analysis; type: functional, organism-based
[22] = tested on: CFPAC-1; assay: Anti-proliferative activity against human CFPAC-1 cells assessed as cell growth inhibition incubated for 72 hrs by MTS assay; type: functional, cell-based; settings: CFPAC-1, 72 h
[23] = target: T1, Signal transducer and activator of transcription 3; assay: Inhibition of STAT3 in human BXPC-3 cells assessed as inhibition of STAT3 phosphorylation at Tyr 705 at 1 to 30 nM incubated for 22 to 24 hrs by western blot analysis; type: cell-based; settings: dose 1-30 nM, time 22-24 hrs, DDE = dose-dependent effect
[24] = tested on: CFPAC-1; assay: Inhibition of mitochondrial respiration in human CFPAC-1 cells at 1 to 30 nM incubated for 1 hr by seahorse XF96 flux analyzer; type: functional, cell-based; settings: dose 1-30 nM, DDE = dose-dependent effect
[25] = target: T1, Signal transducer and activator of transcription 3; assay: Inhibition of STAT3 in human HEK293T cells assessed as inhibition of IL-6 stimulated STAT3 phosphorylation by dual-luciferase reporter assay; type: cell-based
[26] = target: T1, Signal transducer and activator of transcription 3; assay: Thermal stabilization of STAT3 in human BXPC-3 cells at 10 microM at 44.6 degreeC incubated for 1 hrs by cellular thermal shift assay; type: cell-based
[27] = target: T1, Signal transducer and activator of transcription 3; assay: Inhibition of STAT3 in human BXPC-3 cells assessed as inhibition of IL-6 stimulated nuclear STAT3 phosphorylation at Tyr 705 at 1 to 30 nM by western blot assay; type: cell-based; settings: dose 1-30 nM
[28] = tested on: PC-3; assay: Anti-proliferative activity against human PC-3 cells assessed as cell growth inhibition incubated for 72 hrs by MTS assay; type: functional, cell-based; settings: PC-3, 72 h
[29] = target: Tyrosine-protein kinase JAK1 (Homo sapiens, UniProt P23458); assay: Inhibition of JAK1 (unknown origin)
[30] = Half life in BALB/c mouse at 10 mg/kg,po measured upto 24 hrs by LC-MS/MS analysis; type: ADME, organism-based; settings: in vivo
[31] = Microsomal stability in human liver microsomes assessed as intrinsic clearance incubated upto 40 mins in presence of NADPH by LC-MS/MS analysis; type: ADME, Microsome; settings: read-out: CLH
[32] = tested on: Mus musculus; assay: In vivo inhibition of STAT3 in BALB/c mouse xenografted with human BXPC-3 cells assessed as inhibition of STAT3 phosphorylation at Ser 727 at 10 mg/kg,po administrated once daily for 8 weeks by immunohistochemical analysis; type: functional, organism-based
[33] = target: T1, Signal transducer and activator of transcription 3; assay: Inhibition of STAT3 in human Capan-2 cells assessed as inhibition of STAT3 phosphorylation at Ser 727 at 30 nM incubated for 4 to 24 hrs by western blot analysis; type: cell-based; settings: time 4-24 hrs, TDE = time-dependent effect
[34] = Toxicity in BALB/c mouse xenografted with human BXPC-3 cells assessed as effect on liver at 10 mg/kg,po administrated once daily for 8 weeks by H and E staining based microscopic analysis; type: organism-based; settings: in vivo, 1344 h
[35] = Toxicity in BALB/c mouse xenografted with human BXPC-3 cells assessed as effect on spleen at 10 mg/kg,po administrated once daily for 8 weeks by H and E staining based microscopic analysis; type: organism-based; settings: in vivo, 1344 h
[36] = Volume of distribution at steady state in BALB/c mouse at 1 mg/kg,iv measured upto 24 hrs by LC-MS/MS analysis; type: ADME, organism-based; settings: BALB/c, in vivo, read-out: Vdss

T1 sequence (P40763 whole entry): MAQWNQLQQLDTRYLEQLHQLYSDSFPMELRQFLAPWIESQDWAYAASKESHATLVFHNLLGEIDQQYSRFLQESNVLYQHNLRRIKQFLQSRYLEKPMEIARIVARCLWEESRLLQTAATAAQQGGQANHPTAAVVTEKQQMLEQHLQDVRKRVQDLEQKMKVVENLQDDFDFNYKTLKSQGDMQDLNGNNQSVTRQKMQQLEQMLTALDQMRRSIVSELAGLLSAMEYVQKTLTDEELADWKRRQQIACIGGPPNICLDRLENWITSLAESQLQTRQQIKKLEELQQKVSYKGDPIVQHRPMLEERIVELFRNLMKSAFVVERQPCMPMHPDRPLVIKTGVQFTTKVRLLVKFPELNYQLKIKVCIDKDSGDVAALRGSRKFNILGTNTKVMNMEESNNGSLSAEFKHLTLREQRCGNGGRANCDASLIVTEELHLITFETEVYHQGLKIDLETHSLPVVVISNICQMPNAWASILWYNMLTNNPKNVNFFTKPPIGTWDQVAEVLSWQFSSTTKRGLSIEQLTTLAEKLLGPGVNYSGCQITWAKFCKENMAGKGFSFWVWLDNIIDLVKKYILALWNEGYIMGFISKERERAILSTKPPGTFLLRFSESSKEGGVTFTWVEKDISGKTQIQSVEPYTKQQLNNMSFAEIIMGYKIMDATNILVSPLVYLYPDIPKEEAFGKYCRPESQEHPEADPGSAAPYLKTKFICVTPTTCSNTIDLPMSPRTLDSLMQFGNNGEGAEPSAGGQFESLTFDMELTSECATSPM
Sequence of Mitogen-activated protein kinase 8 (P45983 whole entry): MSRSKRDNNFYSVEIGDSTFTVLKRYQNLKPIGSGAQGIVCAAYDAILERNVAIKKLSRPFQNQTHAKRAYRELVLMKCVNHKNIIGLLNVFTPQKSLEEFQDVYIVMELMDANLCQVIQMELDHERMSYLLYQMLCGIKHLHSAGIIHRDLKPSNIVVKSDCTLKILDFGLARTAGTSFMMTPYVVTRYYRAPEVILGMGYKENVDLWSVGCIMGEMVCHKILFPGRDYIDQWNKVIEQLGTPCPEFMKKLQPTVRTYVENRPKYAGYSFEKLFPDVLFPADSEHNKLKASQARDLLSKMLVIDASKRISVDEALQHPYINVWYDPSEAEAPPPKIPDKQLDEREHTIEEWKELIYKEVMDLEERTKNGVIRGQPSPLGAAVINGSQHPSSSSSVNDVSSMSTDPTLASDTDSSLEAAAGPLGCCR
Sequence of Tyrosine-protein kinase JAK1 (P23458 whole entry): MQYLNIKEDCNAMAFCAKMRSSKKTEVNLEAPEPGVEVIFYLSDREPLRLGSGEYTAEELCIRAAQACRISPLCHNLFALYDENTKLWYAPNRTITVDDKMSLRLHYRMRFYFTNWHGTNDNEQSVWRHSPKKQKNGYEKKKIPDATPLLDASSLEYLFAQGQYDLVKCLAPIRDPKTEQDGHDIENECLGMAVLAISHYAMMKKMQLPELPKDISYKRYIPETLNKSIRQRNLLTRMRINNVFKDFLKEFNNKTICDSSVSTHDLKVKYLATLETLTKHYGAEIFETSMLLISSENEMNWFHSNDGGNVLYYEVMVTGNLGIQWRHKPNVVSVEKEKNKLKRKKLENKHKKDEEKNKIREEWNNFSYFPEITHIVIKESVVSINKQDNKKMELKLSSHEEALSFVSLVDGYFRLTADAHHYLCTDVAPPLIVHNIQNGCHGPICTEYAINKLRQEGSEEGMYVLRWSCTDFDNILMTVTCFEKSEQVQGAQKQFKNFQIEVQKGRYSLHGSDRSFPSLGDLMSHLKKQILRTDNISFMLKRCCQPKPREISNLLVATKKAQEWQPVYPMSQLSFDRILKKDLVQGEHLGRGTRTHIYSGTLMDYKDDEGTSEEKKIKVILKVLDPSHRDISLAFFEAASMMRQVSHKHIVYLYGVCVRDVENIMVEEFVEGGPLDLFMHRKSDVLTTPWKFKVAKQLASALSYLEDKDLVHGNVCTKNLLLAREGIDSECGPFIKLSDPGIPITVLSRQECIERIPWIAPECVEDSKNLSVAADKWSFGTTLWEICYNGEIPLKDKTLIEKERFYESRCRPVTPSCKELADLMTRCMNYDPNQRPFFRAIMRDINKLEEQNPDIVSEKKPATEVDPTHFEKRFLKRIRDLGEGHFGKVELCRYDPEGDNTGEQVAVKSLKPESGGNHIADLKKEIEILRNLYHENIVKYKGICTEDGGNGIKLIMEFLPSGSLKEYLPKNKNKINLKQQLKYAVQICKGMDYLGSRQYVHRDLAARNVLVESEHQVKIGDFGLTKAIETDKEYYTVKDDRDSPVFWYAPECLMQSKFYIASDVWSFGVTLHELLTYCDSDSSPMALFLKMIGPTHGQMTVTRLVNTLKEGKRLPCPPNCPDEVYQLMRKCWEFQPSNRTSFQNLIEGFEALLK

inhibition [1]: Dde | AUC(0-inf) [2]: 34900 ng·h/mL | microsomal CLint [3]: 18.4 µL/min/mg | Activity [4]: Active | Cmax [5]: 2570 ng/mL | Cmax [6]: 1810 ng/mL | AUC(0-t) at 24 h [9]: 27600 ng·h/mL | inhibition [11]: Dde | Kd [12]: 21.3 nM | half-life [13]: 1.25 h | IC50 [16]: > 10000 nM | AUC(0-t) at 24 h [18]: 9510 ng·h/mL | inhibition [20]: Dde | inhibition [23]: Dde | IC50 [25]: 5.3 nM | Activity [26]: Active | inhibition [27]: Active | IC50 [28]: > 1000 nM | IC50 [29]: > 10000 nM | half-life [30]: 9.4 h | microsomal CLint [31]: 18.3 µL/min/mg | inhibition [33]: Tde | Vd [36]: 1.27 L/kg
Compound: COc1ccc(-c2noc(-c3cnc(Oc4ccc5cc(C(=O)N6CCN(Cc7ccc(OCC(F)(F)F)cc7)CC6)n(C)c5c4)cn3)n2)cc1
inhibition in vivo at 30 mg/kg [7]: 74.6% | IC50 [8]: 1.9 nM | inhibition [10]: Active | inhibition [14]: Dde | Activity [15]: Active | Activity [17]: Non-Toxic | Activity [19]: Non-Toxic | inhibition [21]: Active | IC50 [22]: 6 nM | inhibition [24]: Dde | inhibition [32]: Active | Activity [34]: Non-Toxic | Activity [35]: Non-Toxic
